We go through one substance from US20090005326A1, “SINGLE DOSE ROXITHROMYCIN” (priority 2007, published 2009).

Read-outs that look alike come from different tables or passages of the source.

Data set [1] has as its system Streptococcus pyogenes. The experiment in a line: MIC, single disc method. Type of data set: cell-based. How it is done:
(§1) Typically, to be effective, the minimum inhibitory concentration of the roxithromycin against a specific bacteria should be less than 10 μg/mL, preferably less than 5 μg/mL, more preferably less than 2 μg/mL, even more preferably less than 1 μg/mL, and most preferably less than 0.5 μg/mL. The activity of roxithromycin against a bacteria can be determined using standard dilution tests. For example, the minimum inhibitory concentrations can be determined using the disk diffusion susceptibility testing method described in Clinical Microbiology Procedures Handbook, volume 1, edited by Henry D. Isenberg, American Society for Microbiology, 1992, section 5.1 or the well known method of Bauer et al. “Antibiotic Susceptibility Testing by a Standardized Single Disc Method,” Amer. J. Clin. Pathol., 45, p. 493-496.
(§2) FIG. 1 provides a graphical representation of the average plasma serum concentration of roxithromycin as a function of time for the 5 cats that were administered a single dose of roxithromycin by subcutaneous injection at a dose of 10 mg/kg as a formulation containing 200 mg/mL of roxithromycin in 10% propylene glycol in glycerol formal. […] J. Clin. Pathol., 45, p. 493-496.

The test system of data set [2] is Staphylococcus aureus. The experiment in a line: MIC, single disc method. Type of data set: cell-based. How it is done:
as §1, §2

Data set [3] has as its system Escherichia coli. The experiment in a line: MIC, single disc method. Type of data set: cell-based. How it is done:
as §1, §2

For data set [4], the system named is Enterococcus faecalis. The experiment in a line: MIC, single disc method. Type of data set: cell-based. As to the method: as §1, §2
The test system of data set [5] is Clostridium perfringes. The experiment in a line: MIC, single disc method. Type of data set: cell-based. How it is done:
as §1, §2

The test system of data set [6] is Streptococcus pneumoniae. The experiment in a line: MIC, single disc method. Format: cell-based. How it is done: as §1, §2
The subject of data set [7] is Pasteurella multocida. The experiment in a line: MIC, single disc method. Format: cell-based. How it is done:
as §1, §2

For data set [8], the system named is Bacillus subtilis. The experiment in a line: MIC, single disc method. Type of data set: cell-based. As to the method: as §1, §2
For data set [9] the following is noted: literature; cited from earlier work.
Data set [10] can be described thus: Serum concentration after single subcutaneous injection to cats. Type of data set: in vivo. The conditions noted are these: cat, single subcutaneous injection 10 mg/kg, 200 mg/mL in 10% propylene glycol in glycerol formal. How it is done: Five cats (mixed breed of various sizes, males and female, approximately 4 kg) were administered 10 mg/kg of a roxithromycin composition by subcutaneous injection between the shoulder blades. The roxithromycin composition was prepared by weighing 5.128 g of roxithromycin (purity 97.5%) into a 25 mL volumetric flask, adding 2.5 mL of propylene glycol, and filling to volume with stabilized glycerol formal.
Cats were kept in a stainless steel, suspended, wire bottom cage, at least 3′×3′, provided with a litter box in an environmentally controlled room (22±3° C., a relative humidity of 30-80%, a 12 hour light/dark schedule, and room ventilation of approximately 10-12 air changes per hour.) Tap water was available ad libitum and the cats were fed PMI Feline Lab Diet #5003 or other commercial product.
Blood samples were collected on Day-1 and approximately 1 mL of whole blood was collected at 1, 8, 24, 36, 48, 60, and 72 hr following dosing and twice-daily thereafter through study termination on day 10. […] The dose site was monitored daily during the study.
The serum was analyzed by high pressure liquid chromatograph (“HPLC”) using the following procedure: […]
The serum concentration of roxithromycin was then determined by comparing the area under the curve for the HPLC peak corresponding to roxithromycin to a standard curve of peak areas v. known concentrations of roxithromycin in serum. […]

The conditions of data set [11]: in humans; cited from earlier work.
For data set [12] the following is noted: cat, single oral dose 20 mg/kg, capsule of powdered roxithromycin.
The nature of data set [13]: Elimination T1/2 of roxithromycin in a cat. Type of data set: in vivo. The conditions noted are these: administered to a cat; route and dose not stated. As to the method: The phrase “elimination half life” or “T1/2,” as used herein, has the conventional meaning used in pharmacokinetics, i.e., the time taken for the maximum plasma concentration (Cmax) of a drug to reduce by 50%.
Therefore, the rate of clearance of roxithromycin from a cat, i.e., as measured by the T1/2, is much slower than when roxithromycin is administered to, for example, a human. The unexpectedly slow rate of clearance (long T1/2) allows bacterial infections in cats to be advantageously treated with a single administration of roxithromycin administered either orally or by injection. Treating a bacterial infection using a single dose of roxithromycin is simpler, more cost effective, and results in better patient compliance. Furthermore, single dose administration of roxithromycin is believed to reduce the risk of microbial strains emerging that are resistant to roxithromycin. Single dose administration of roxithromycin by injection is advantageous because administration by injection bypasses liver metabolism and the single administration precludes multiple visits to the veterinarian. Single dose administration orally, however, is less painful and can permit administration without requiring a visit to the veterinarian.

In general, half-life refers to how long it takes for the measured level to halve. As for roxithromycin, the “Minimum Inhibitory Concentration (MIC)” value in data set [1] is 0.25 µg/mL; in data set [2], 0.25 µg/mL; in [3], 32 µg/mL; in data set [4] it was 8 µg/mL; in data set [5], 2 µg/mL; in [6], 0.25 µg/mL. Moreover, the “Minimum Inhibitory Concentration (MIC)” value was 1 µg/mL in data set [7] and 0.25 µg/mL in data set [8]. Also, in data set [9], the “stability in acidic environments” value is recorded as “acid labile”. The “time for which serum concentration exceeds the MIC for several bacterial organisms” value in [10] is on record as “more than 190 hours”; in data set [12] it was “at least 150 hours”. The half-life in data set [11] was 10 to 12 h. Moreover, the “elimination T1/2” value in data set [13] is on record as “about 73.5 hours”.
